Reference: ChEMBL document CHEMBL3137667, “[Drug-induced liver injury; fourteenth updated edition of the bibliographic database of liver injuries and related drugs]” (Gastroenterol Clin Biol, 2004)

How the values were obtained:
[1] = human, serum
[2] = Highest frequency of moderate liver toxicity observed during clinical trials, expressed as a percentage. [column '% BIOL' in source]; details: human
[3] = human, serum; remark: listed apart in the source
[4] = human
[5] = human; remark: listed apart in the source
[6] = human; remark: listed apart in the source
[7] = Times to onset, minimal and maximal, observed in the indexed observations. [column 'DELAI' in source]; details: human
[8] = human; remark: listed apart in the source
[9] = human; remark: listed apart in the source
[10] = human; remark: listed apart in the source
[11] = human; remark: listed apart in the source
[12] = human; remark: listed apart in the source
[13] = human; remark: listed apart in the source
[14] = human, serum, 4383 h
[15] = Highest frequency of acute liver toxicity observed during clinical trials, expressed as a percentage. [column '% AIGUE' in source]; details: human
[16] = Comments (NB not yet translated). [column 'COMMENTAIRES' in source]; details: human
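Throughout, for Hepatotoxicity (association with vascular disease): count of indexed literature references reporting vascular liver injury in humans, e.g. peliosis hepatitis, hepatic veno-occlusive disease or Budd-Chiari syndrome.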
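Throughout, for Hepatotoxicity (benign tumour): value is a count of indexed literature references citing a benign tumour confirmed by histopathology.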
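Throughout, for Hepatotoxicity (choleostasis): human cholestatic liver injury, shown by histopathology or by peak ALT or AST elevation over alkaline phosphatase ratio below 2, value counts indexed literature reports.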
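Throughout, for Hepatotoxicity (chronic liver disease): chronic liver injury confirmed by histopathology or persistently raised serum aminotransferase activity beyond 6 months, value given as the count of indexed literature references.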
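Throughout, for Hepatotoxicity (cirrhosis): value is a count of indexed literature references reporting cirrhosis confirmed by histopathology.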
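Throughout, for Hepatotoxicity (cytolytic): human cytolytic liver injury, shown by histopathology or by a ratio above 5 of peak ALT or AST elevation to alkaline phosphatase elevation, value counts indexed references.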
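Throughout, for Hepatotoxicity (granulomatous hepatitis): value is a count of indexed literature references reporting granulomatous liver disease confirmed by histopathology.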
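Throughout, for Hepatotoxicity (malignant tumour): malignant tumour confirmed by histopathology, value gives the count of indexed literature references reporting it.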
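Throughout, for Hepatotoxicity (severe hepatitis): human clinical data: severe hepatitis, meaning potentially life-threatening liver failure or clinically observed cases, the value counts how many indexed literature references report it.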
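Throughout, for Hepatotoxicity (steatosis): steatosis confirmed by histopathology, value is the count of indexed references.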

SMILES	Hepatotoxicity (acute) [1]	Hepatotoxicity (moderate) [3]	Hepatotoxicity (cirrhosis) [5]	Hepatotoxicity (association with vascular disease) [6]	Hepatotoxicity (time to onset) [7]	Hepatotoxicity (choleostasis) [8]	Hepatotoxicity (granulomatous hepatitis) [9]	Hepatotoxicity (benign tumour) [10]	Hepatotoxicity (steatosis) [11]	Hepatotoxicity (cytolytic) [12]	Hepatotoxicity (malignant tumour) [13]	Hepatotoxicity (chronic liver disease) [14]	Hepatotoxicity (comment) [16]	Hepatotoxicity (moderate) [2] [%]	Hepatotoxicity (severe hepatitis) [4]	Hepatotoxicity (acute) [15] [%]	also measured
CCN1CCN(C(=O)N[C@@H](C(=O)N[C@@H]2C(=O)N3C(C(=O)O)=C(CSc4nnnn4C)CS[C@H]23)c2ccc(O)cc2)C(=O)C1=O [CEFOPERAZONE]	0	15	0	0	23 days	0	0	0	0	0	0	0	CHOLANGITE				Hepatotoxicity (moderate) ([2]; Liver): 20%; Hepatotoxicity (severe hepatitis) ([4]; Liver): 1; Hepatotoxicity (acute) ([15]; Liver): 0%
c1ccc(C2(c3ccccc3)CC2C2=NCCN2)cc1 (stereo not drawn) [CIFENLINE]	2	2	0	0	47 days - 5.5 months	0	0	0	0	2	0	0	CHOLANGITE	4.1	0	0	
CC(=O)[C@H]1CC[C@H]2[C@@H]3CCC4=CC(=O)CC[C@]4(C)[C@H]3CC[C@]12C [PROGESTERONE]	3	2	0	0	1 week - 40 weeks	1	0	1	0	2	0	0	HNF	13.3	0	0	
CCCCC1=NC2(CCCC2)C(=O)N1Cc1ccc(-c2ccccc2-c2nnn[nH]2)cc1 [IRBESARTAN]	2	2	0	0	5 days - 4 weeks	2	0	0	0	0	0	0	CHOLESTASE_PROLONGEE				Hepatotoxicity (moderate) ([2]; Liver): 4.3%; Hepatotoxicity (severe hepatitis) ([4]; Liver): 0; Hepatotoxicity (acute) ([15]; Liver): 0%
C1CCC(C(CC2CCCCN2)C2CCCCC2)CC1 (stereo not drawn) [PERHEXILINE]	11	18	22	0	3 weeks - 12 years	2	1	0	10	9	0	1	I/AMIODARONE/BEZAFIBRATE/PAROXETINE INCLUSIONLAMELLAIRE	30	5	0	
C[C@]12Cc3c[nH]nc3C[C@@H]1CC[C@@H]1[C@@H]2CC[C@@]2(C)[C@H]1CC[C@]2(C)O [STANOZOLOL]	6	6	0	0	1 month - 20 years	4	0	3	0	2	2	0	ANGIOSARCOME HNF	26.1	1	0	
CCOc1ccc2ccccc2c1C(=O)N[C@@H]1C(=O)N2[C@@H]1SC(C)(C)[C@@H]2C(=O)O [NAFCILLIN]	5	4	0	0	1 day - 2 weeks	3	0	0	0	1	0	0	RC/OXACILLINE/CEFALOTINE	25	0	3.1	
CN1CCN(CCCN2c3ccccc3Sc3ccc(Cl)cc32)CC1 [PROCHLORPERAZINE]	9	0	0	0	1 week - 4 months	6	0	0	0	3	0	3	I/IPRONIAZIDE CHOLESTASE_PROLONGEE DUCTOPENIE	0	3	0	
Nc1nc(F)nc2c1ncn2[C@@H]1O[C@H](CO)[C@@H](O)[C@@H]1O [FLUDARABINE]	2	5	0	0	8 months	0	0	0	0	1	0	0	REACTIVATION_HVB	42.9	1	0	
Cc1ccc(O)c2ncccc12 [TILIQUINOL]	1	0	0	0	4 days	0	1	0	0	0	0	0	CHOLANGITE	0	0	0	
CCOC(=O)C1=C(C)NC(C)=C(C(=O)OC)C1c1cccc([N+](=O)[O-])c1 (stereo not drawn) [NITRENDIPINE]	1	2	0	0	3 weeks	0	0	0	0	0	0	0	AC_ANTI-N	18.2	0	0	
CC/C(=C(/CC)c1ccc(OP(=O)(O)O)cc1)c1ccc(OP(=O)(O)O)cc1 [DIETHYLSTILBESTROL DIPHOSPHATE]	0	1	1	0	3 months - 9 years	0	0	0	1	0	0	1	NASH	6.3	0	0	
CCO.CN1CCC[C@H]1c1cccnc1	3	2	0	0	8 months - 10 years			0	0		0	1	CHOLANGITE				Hepatotoxicity (moderate) ([2]; Liver): 4%; Hepatotoxicity (severe hepatitis) ([4]; Liver): 0; Hepatotoxicity (choleostasis) ([8]; Liver): 2; Hepatotoxicity (granulomatous hepatitis) ([9]; Liver): 0; Hepatotoxicity (cytolytic) ([12]; Liver): 1; Hepatotoxicity (acute) ([15]; Liver): 0%
